The text below walks through data of patent publication US20090155828A1, “METHODS OF DETECTING PROSTATE CANCER” (The Burnham Institute for Medical Research, priority 2001, published 2009).

The test system of one data set is tumor cells in culture. The conditions noted are these: cited from earlier work; for Apoptosis of tumor cells: tumor / cancer cells in culture.
Data set [1] concerns N-acyl peptide hydrolase (NAPH). Kind of data set: N-acyl peptide hydrolase activity in DHT treated LNCaP cells, fp-PEG-Tamra profile. Type of data set: cell-based, human. The settings on record: 100 nM DHT, six days. The procedure:
(§1) Serine hydrolase activity profiles of the prostate cell lines were measured using the labeled fluorophosphonate probe fp-PEG-Tamra. Briefly, 40 μg of either the soluble or insoluble fractions were treated with 2 μM fp-PEG-Tamra for 1 hr at RT. The labeling reactions were stopped by the addition of Laemmli buffer followed by boiling for 5 min. As a control for non-specific reaction of the probe, a duplicate sample was boiled for 10 min prior to labeling with fp-PEG-Tamra. The labeled samples were resolved by 10% SDS-PAGE and visualized by scanning with a laser at 605 nm.
(§2) It is well established that androgen (DHT) specifically, promotes proliferation of LNCaP cells in vitro. While the direct cause for this is not completely understood, it is clear that changes in gene and protein levels are associated with proliferation. As such, it was hypothesized that androgen treatment of LNCaP cells would change the aggregate activity profile. […] LNCaP cell proliferation was measured in the presence of either 0.1 nM or 100 nM DHT. […] Cells were counted using a hemocytometer. On day six, the aggregate serine hydrolase activity profiles were also measured. […] Specific labeling was assessed by comparison to a preheated control.

Data set [2] relates to prolyl endopeptidase (PEP). The data set can be described thus: Prolyl endopeptidase activity in DHT treated LNCaP cells, fp-PEG-Tamra profile. Type of data set: cell-based, human. The conditions noted are these: six days. The method, then:
as §1, §2

Another data set relates to PEP mRNA. The data set can be described thus: PEP mRNA level in DHT treated LNCaP cells by real time PCR. The data set is classed as cell-based, human. The settings on record: 100 nM DHT. The procedure: (§3) The serine hydrolase activity levels in the four prostate cell lines, or the change in serine hydrolase activity with DHT treatment, as assessed by fp-PEG-Tamra, was compared to the mRNA level of the cognate enzymes. Total RNA was isolated with Trizol (Life Technologies) from LNCaP, LNCaP treated with DHT, DU-145, PC-3 or PrEC cell lines. Reverse transcription was performed with Superscript II. Real time PCR was performed using the Roche SYBER Green DNA kit and a Roche LightCycler according to manufacturer instructions. Primers (20mers) were used at a final concentration of […], and 45 cycles were used.

The next data set relates to LNCaP cells. Kind of data set: Androgen effects on LNCaP cell proliferation. Type of data set: cell-based, human. The settings on record: six days. The procedure: LNCaP cell proliferation was measured in the presence of either 0.1 nM or 100 nM DHT. Cells were plated in 24 well plates in RPMI 1640 with no phenol red and supplemented with charcoal stripped FBS and allowed to adhere overnight. The following day media was replaced, with or without DHT, and cells were grown for six days with media change every second day. Cells were counted using a hemocytometer.
In order to assess the effects of androgen (DHT) treatment on cell proliferation, LNCaP cells were plated in either 150 mm dishes (Falcon) or in 12 well tissue culture plates (Falcon) in complete medium. After 24 hr, the medium was replaced with RPMI containing no phenol red and supplemented with 10% charcoal stripped fetal bovine serum and the appropriate concentration of DHT. The medium was replaced every 48 hr for six days. At the indicated time points, the cells were removed by treatment with trypsin-EDTA and counted with a hemocytometer.
It is well established that androgen (DHT) specifically, promotes proliferation of LNCaP cells in vitro. […] LNCaP cell proliferation was measured in the presence of either 0.1 nM or 100 nM DHT. […] Cells were counted using a hemocytometer. On day six, the aggregate serine hydrolase activity profiles were also measured. […] Specific labeling was assessed by comparison to a preheated control.

Data set [3] has as its system fatty acid synthase (FAS). The data set can be described thus: Fatty acid synthase activity in DHT treated LNCaP cells, fp-PEG-Tamra profile. The conditions noted are these: six days. Type of data set: cell-based, human. The procedure:
as §1, §2

For the next data set, the system named is PSA mRNA. The data set can be described thus: PSA mRNA level in DHT treated LNCaP cells by real time PCR. The data set is classed as cell-based, human. The procedure: as §3
On the technique in general: In qPCR the cycle at which signal appears reflects the starting amount.

Another data set concerns PSA. Kind of data set: PSA activity in DHT treated LNCaP cells, fp-PEG-Tamra profile. Type of data set: cell-based, human. The conditions noted are these: six days. The method, then:
as §1, §2

In the next data set the test system is NAPH mRNA. The data set can be described thus: NAPH mRNA level in DHT treated LNCaP cells by real time PCR. Type of data set: cell-based, human. The settings on record: 100 nM DHT. The method, then:
as §3

Data set [4] concerns DPP-like activity in LNCaP soluble fraction. The data set can be described thus: Inhibition of DPP-like activity with isoleucine thiozolidide, fp-PEG-Tamra labeling, LNCaP soluble fraction. Type of data set: biochemical, human. The settings on record: for Reaction of fp-PEG-Tamra probe with DPP-like protein (words): LNCaP lysate preincubated with IT, 97 kDa band. The procedure:
(§4) . Each lysate was pre-incubated with 100 TM IT for 20 min at RT. Residual DPP-like activity was evaluated by treatment with 2 TM fp-PEG-Tamma, as described above, followed by resolution with 10% SDS-PAGE and comparison to samples not treated with IT. Inhibition of DPP activity was quantified by measuring the fluorescence intensity of the conjugate between fp-PEG-TAMRA and the DPP. The activity of a non-DPP enzyme was used to standardize the specific effects if IT.
(§5) One member of this family, DPP-IV, has been investigated as a target in type II diabetes. As a result of those investigations, several peptidic antagonists of DPP IV have been synthesized (Pederson et al., Diabetes 47:1253-58; 1998; Pauly et al., Metabolism 48(3):385-389, 1999). […]. The sensitivity of enzyme activity to IT was tested in the soluble fractions of the LNCaP, DU-145, and PC-3 prostate cancer cells lines. Each lysate was pre-incubated with 100 TM IT for 20 min at RT. Residual DPP-like activity was evaluated by the addition of 2 TM fp-PEG-Tamra, followed by resolution with 10% SDS-PAGE and comparison to the non-treated samples. […]. […] Specific labeling was determined by comparison to preheated controls.
In each of the three prostate cancer cell lines, a novel protein with homology to DPP was identified using MS/MS. The similarity to DPP was based on fold and function assignment of the corresponding cDNA and its cognate protein (Zhang et al., Prot. Sci. 8:1104-1115, 1999). […].

Data set [5] deals with non-DPP proteins (other serine hydrolase activity). The data set can be described thus: Specificity of IT: fp-PEG-Tamra labeling of non-DPP serine hydrolases in prostate cancer cell lysates. Type of data set: biochemical, human. The conditions noted are these: soluble fractions of LNCaP, DU-145, PC-3, 100 TM IT. The procedure: as §4, §5
In each of the three prostate cancer cell lines, a novel protein with homology to DPP was identified using MS/MS. […]

For the next data set, the system named is tumor growth. The conditions noted are these: cited from earlier work.
Where [6] appears, read: listed as isoleucine thiazolidide.

“Also recorded” adds a separate entry of the source.

As to `C=C1C(=O)OC(CCCCCCCC)C1C(=O)O` (centres unmarked) [Compound C75], in the data set with tumor cells in culture, the “Cytotoxicity to cancer cells” value is reported as “cytotoxic” and the “Apoptosis of tumor cells” value was “in some cases induce apoptosis”.

Take `C[C@]12CCC(=O)C[C@@H]1CC[C@@H]1[C@@H]2CC[C@]2(C)[C@@H](O)CC[C@@H]12` [DHT]: the “Change of NAPH activity” value in data set [1] was “dramatic drop”. Also, the entries for the “Change of PEP activity” value in data set [2] (0.1 nM DHT) and in data set [2] (100 nM DHT) were “decreased” and “dramatic drop”, respectively. Besides, in the data set with PEP mRNA, the “Change of PEP mRNA level” value is reported as “increased”. The LNCaP cell proliferation entry in the data set on LNCaP cells (0.1 nM DHT) was “promoted cell proliferation”; in the data set with LNCaP cells (100 nM DHT), “cell proliferation was inhibited”. Further, the “Change of FAS activity” value in [3] (0.1 nM DHT) was “increased three-fold to five-fold”; in [3] (100 nM DHT), “increased”. The “Change of PSA mRNA level” value is listed as “increased over eleven-fold” with PSA mRNA (0.1 nM DHT, six days) and “large increase” with PSA mRNA (100 nM DHT). In addition, the figures for the “Change of PSA activity” value in the data set on PSA (0.1 nM DHT) and with PSA (100 nM DHT) were “no noticeable change” and “increased”, respectively. Besides, the “Change of NAPH mRNA level” value in the data set on NAPH mRNA was “slightly greater than two-fold”.

As to `CC[C@H](C)[C@H](N)C(=O)N1CCSC1` [IT, isoleucine thiazolidide], the “Reaction of fp-PEG-Tamra probe with DPP-like protein (words)” value is “inhibited” in data set [4] and “dramatically reduced” in [4] (setting [6]). Moreover, the DPP-like activity inhibited in data set [4] (LNCaP soluble fraction, pre-incubated with 100 TM IT 20 min RT, 2 TM fp-PEG-Tamra) was determined as 63%. The entries for the “Inhibition of non-DPP proteins / other serine hydrolase activity” value in data set [5] and in data set [5] (setting [6]) were “No inhibition; also recorded: no other serine hydrolase activity was reduced” and “No other enzyme activities were inhibited”, respectively.

`C/C=C/C/C=C/CCC(=O)[C@H]1O[C@H]1C(N)=O` [cerulenin]: the “Tumor growth in nude mice” value with tumor growth is listed as “inhibit tumor growth”. In the data set on tumor cells in culture, the “Cytotoxicity to cancer cells” value is recorded as “cytotoxic” and the “Apoptosis of tumor cells” value is listed as “induces apoptosis; also recorded: in some cases induce apoptosis”.
